In US10125118B2, “Heteroaryl compounds and their use as therapeutic drugs” (Dong-A Socio Holdings Co., Ltd., priority 2015, dated 2018) one finds GI50 and IC50 data, which are given here for 16 compounds.

For experiment [1], the system named is CD8-MerTK in Ba/F3-CDM cells. As to the kind of experiment: In cell MER kinase assay, Ba/F3-CDM cell proliferation without IL-3 (Celltiter-Glo). The conditions noted are these: 48 hours compound treatment, read-out: Cell growth inhibition (GI50). The experiment is classed as cell-based, murine. In a few lines: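 Ba/F3 cells, IL-3-dependent, transfected with CD8-MerTK and grown without IL-3 in DMEM/10% FBS. IL-3-supplemented Ba/F3 cells run in parallel as a cytotoxicity control.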

Experiment [2] deals with human c-MER catalytic domain (Homo sapiens (Human), UniProt Q12866). Description: LanthaScreen TR-FRET kinase assay, c-MER. The following applies: read-out: Mer TK inhibition (IC50); Biochemical IC50, TR-FRET, 10 uM ATP.

SMILES strings stand for the structures. pIC50: −log10 of the molar value.

human c-MER catalytic domain, sequence (Q12866 587-858): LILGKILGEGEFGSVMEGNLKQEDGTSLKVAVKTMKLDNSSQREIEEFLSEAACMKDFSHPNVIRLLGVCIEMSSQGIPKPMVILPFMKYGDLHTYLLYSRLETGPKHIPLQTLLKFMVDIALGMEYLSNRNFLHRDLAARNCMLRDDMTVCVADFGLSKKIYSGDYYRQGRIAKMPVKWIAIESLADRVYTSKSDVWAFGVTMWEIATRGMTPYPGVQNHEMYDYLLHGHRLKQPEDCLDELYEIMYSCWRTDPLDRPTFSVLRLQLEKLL

As for `CN1CCN(Cc2ccc(-c3ccc(CO[C@H]4CCC[C@@H]4NC(=O)c4cc(-c5cnn(C)c5)cnc4N)cc3)cn2)CC1` [Example 203, 2-amino-5-(1-methyl-1H-pyrazol-4-yl)-N-((1S,2S)-2-((4-(6-((4-methylpiperazin-1-yl)methyl)pyridin-3-yl)benzyl)oxy)cyclopentyl)nicotinamide], the GI50 in experiment [1] fell in the range of 100 to 500 nM. Moreover, the pIC50 in experiment [2] is over 8.00.

With `CN1CCN(Cc2ccc(-c3ccc(CO[C@H]4CNC[C@@H]4NC(=O)c4cc(-c5cnn(C)c5)cnc4N)cc3)cc2)CC1` [Example 434, 2-amino-5-(1-methyl-1H-pyrazol-4-yl)-N-((3S,4S)-4-((4′-((4-methylpiperazin-1-yl)methyl)-[1,1′-biphenyl]-4-yl)methoxy)pyrrolidin-3-yl)-nicotinamide], the GI50 in experiment [1] is 500 to 1000 nM. Also, the pIC50 in experiment [2] is over 8.00.

In the case of `Cc1ccc(CO[C@H]2CCC[C@@H]2NC(=O)c2cc(-c3ccc(CN4CCC(N5CCCC5)CC4)c(F)c3)cnc2N)cc1C` [Example 325, 2-amino-N-((1S,2S)-2-((3,4-dimethylbenzyl)oxy)cyclopentyl)-5-(3-fluoro-4-((4-(pyrrolidin-1-yl)piperidin-1-yl)methyl)phenyl)nicotinamide], the GI50 in experiment [1] is over 1000 nM. Further, in experiment [2], the pIC50 was over 8.00.

Turning to `CCc1cc(CO[C@H]2CCC[C@@H]2NC(=O)c2cc(-c3cnn(C)c3)cnc2N)ccc1C` [Example 21, 2-amino-N-((1S,2S)-2-((3-ethyl-4-methylbenzyl)oxy)cyclopentyl)-5-(1-methyl-1H-pyrazol-4-yl)nicotinamide], the concentration for 50% growth inhibition (GI50) in experiment [1] is over 1000 nM. Besides, in experiment [2], the pIC50 was over 8.00.

With `CN1CCN(Cc2ccc(-c3ccc(CO[C@H]4CCC[C@@H]4NC(=O)c4cc(-c5cnn(C(F)(F)C(F)F)c5)cnc4N)cc3)cc2)CC1` [Example 387], the GI50 in experiment [1] is under 100 nM. The pIC50 in experiment [2] is over 8.00.

For the compound `CN1CCN(Cc2ccc(-c3ccc(CO[C@H]4COC[C@@H]4NC(=O)c4cc(-c5cnn(C)c5)cnc4N)cc3)cc2)CC1` [Example 448, 2-amino-5-(1-methyl-1H-pyrazol-4-yl)-N-((3S,4R)-4-((4′-((4-methylpiperazin-1-yl)methyl)-[1,1′-biphenyl]-4-yl)methoxy)tetrahydrofuran-3-yl)-nicotinamide], the GI50 in experiment [1] was under 100 nM. The pIC50 in experiment [2] was over 8.00.

On to `Cn1cc(-c2cnc(N)c(C(=O)N[C@H]3CCC[C@@H]3OCc3ccc(-c4ccc(CN5CCC(N6CCCC6)CC5)cc4)cc3)c2)cn1` [Example 179, 2-amino-5-(1-methyl-1H-pyrazol-4-yl)-N-((1S,2S)-2-((4′-((4-(pyrrolidin-1-yl)piperidin-1-yl)methyl)-[1,1′-biphenyl]-4-yl)methoxy)cyclopentyl)-nicotinamide], for which, in experiment [1], the GI50 fell in the range of 100 to 500 nM. Besides, in experiment [2], the pIC50 was over 8.00.

Take `C[C@@H](c1ccc(-c2ccc(CO[C@H]3CCC[C@@H]3NC(=O)c3cc(-c4cnn(C)c4)cnc3N)cc2)cc1)N1CCN(C)CC1` [Example 215, 2-amino-5-(1-methyl-1H-pyrazol-4-yl)-N-((1S,2S)-2-((4′-((S)-1-(4-methylpiperazin-1-yl)ethyl)-[1,1′-biphenyl]-4-yl)methoxy)cyclopentyl)nicotinamide]: the GI50 in experiment [1] was under 100 nM. In experiment [2], the pIC50 was over 8.00.

As for `Cn1cc(-c2cnc(N)c(C(=O)N[C@H]3CCC[C@@H]3OCc3ccc(-c4ccc(CN5CCN(CCO)CC5)c(C(F)(F)F)c4)cc3)c2)cn1` [Example 205, 2-amino-N-((1S,2S)-2-((4′-((4-(2-hydroxyethyl)piperazin-1-yl)methyl)-3′-(trifluoromethyl)-[1,1′-biphenyl]-4-yl)methoxy)cyclopentyl)-5-(1-methyl-1H-pyrazol-4-yl)nicotinamide], in experiment [1], the GI50 was under 100 nM. In experiment [2], the pIC50 was over 8.00.

Take `CCc1cc(CO[C@H]2CNC[C@@H]2NC(=O)c2cc(-c3cnn(C4CCN(C)CC4)c3)cnc2N)ccc1C` [Example 413, 2-amino-N-((3S,4S)-4-((3-ethyl-4-methylbenzyl)oxy)pyrrolidin-3-yl)-5-(1-(1-methylpiperidin-4-yl)-1H-pyrazol-4-yl)nicotinamide]: the GI50 in experiment [1] lay within 500 to 1000 nM. For the same compound, the pIC50 in experiment [2] is over 8.00.

As to `COc1ccc(-c2cnc(N)c(C(=O)N[C@H]3CCC[C@@H]3OCc3ccc(-c4ccc(CN5CCN(C)CC5)cc4)cc3)c2)cc1OC` [Example 383, 2-amino-5-(3,4-dimethoxyphenyl)-N-((1S,2S)-2-((4′-((4-methylpiperazin-1-yl)methyl)-[1,1′-biphenyl]-4-yl)methoxy)cyclopentyl)nicotinamide], in experiment [1], the GI50 is under 100 nM. Also, the pIC50 in experiment [2] was over 8.00.

Consider `CN1CCN(Cc2ccc(-c3ccc(CO[C@H]4CCC[C@@H]4NC(=O)c4cc(-c5cnn(C)c5)cnc4N)cc3Cl)cc2)CC1` [Example 159, 2-amino-N-((1S,2S)-2-((2-chloro-4′-((4-methylpiperazin-1-yl)-methyl)-[1,1′-biphenyl]-4-yl)methoxy)cyclopentyl)-5-(1-methyl-1H-pyrazol-4-yl)-nicotinamide], for which, in experiment [1], the GI50 lay in the range of 100 to 500 nM. Further, the pIC50 in experiment [2] is over 8.00.

`CCc1cc(CO[C@H]2CNC[C@@H]2NC(=O)c2cc(-c3ccncc3)cnc2N)ccc1C` [Example 395, 6-amino-N-((3S,4S)-4-((3-ethyl-4-methylbenzyl)oxy)pyrrolidin-3-yl)-[3,4′-bipyridine]-5-carboxamide]: the GI50 in experiment [1] was 500 to 1000 nM. In addition, the pIC50 in experiment [2] was over 8.00.

As to `CN1CCN(Cc2ccc(-c3ccc(CO[C@H]4CCC[C@@H]4NC(=O)c4cc(-c5ccc(F)cc5)cnc4N)cc3)cc2)CC1` [Example 363, 2-amino-5-(4-fluorophenyl)-N-((1S,2S)-2-((4′-((4-methylpiperazin-1-yl)methyl)-[1,1′-biphenyl]-4-yl)methoxy)cyclopentyl)nicotinamide], the GI50 in experiment [1] lay in the range of 100 to 500 nM. In addition, in experiment [2], the pIC50 was over 8.00.

Turning to `Cn1cc(-c2cnc(N)c(C(=O)N[C@H]3CCC[C@@H]3OCc3ccc(C#CCCCO)cc3)c2)cn1` [Example 250, 2-amino-N-((1S,2S)-2-((4-(5-hydroxypent-1-yn-1-yl)-benzyl)oxy)-cyclopentyl)-5-(1-methyl-1H-pyrazol-4-yl)nicotinamide], in experiment [1], the GI50 is 100 to 500 nM. Besides, the pIC50 in experiment [2] is over 8.00.

In the case of `CN1CCN(c2ccc(-c3ccc(CO[C@H]4CCC[C@@H]4NC(=O)c4cc(-c5cnn(C)c5)cnc4N)cc3)cn2)CC1` [Example 148, 2-amino-5-(1-methyl-1H-pyrazol-4-yl)-N-((1S,2S)-2-((4-(6-(4-methylpiperazin-1-yl)pyridin-3-yl)benzyl)oxy)cyclopentyl)nicotinamide], the GI50 in experiment [1] is over 1000 nM. Moreover, the pIC50 in experiment [2] is over 8.00.
